The record followed here is patent publication US9415114B2, “Conformations of divergent peptides with mineral binding affinity” (KAOHSIUNG MEDICAL UNIVERSITY, priority 2011, dated 2016).

The nature of the test: Hydroxylapatite column test (retention time on HAp column by HPLC). It counts as binding. The settings on record: HAp column 0.7 x 5 cm, eluent 0.5 mM PBS pH 7.4, flow rate 0.25 mL/min, 220 nm; longer retention = higher mineral affinity. The procedure: Hydroxylapatite Column Test
Using the column which is filling hydroxylapatite particles to evaluate the affinity. The diameter and length of hydroxylapatite column are 0.7 and 5 cm, and experimented by High Performance Liquid Chromatography system. The elute solution is 0.5 mM PBS (pH 7.4), the flow rate is 0.25 mL/min, and the wavelength is 220 nm.

As for HO-Gly-(Asp)6-NHAc [L1b], the “retention time in hydroxylapatite column test” value was found to be 13.3 min. Under H2N-(Gly)3-(Asp)3-NHAc [L1c] stands 13.0 min.
